Assay results published in PubChem BioAssay AID449762 (Southern Research Specialized Biocontainment Screening …, 2010).
Results filed as inconclusive are left out.

Test system: M. tuberculosis H37Rv growth inhibition, 7H9 media
Assay: M. tuberculosis growth inhibition, HTS (AID 449762);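 also: bacterial growth assessed after seven days of incubation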
Details: for IC90: measured here: IC90 growth inhibition

Row | Compound | IC50 [µM] | IC90 [µM]
1 | CCN(CC)Cc1nc2c(c(=O)[nH]1)C(CC)(CC)Cc1ccccc1-2 | 4.46 | 18.4
2 | CCOc1cc(/C=N\NC(=O)Cn2nc([N+](=O)[O-])cc2C)ccc1OCc1cccc2ccccc12 | – | > 100
3 | C[C@]12CC[C@@H]3c4ccc(O)cc4CC[C@H]3[C@@H]1CC[C@@H]2OC(=O)CCC1CCCC1 | 6.41 | 10.9
4 | CCCCCCCCSc1nnc(CSc2nc3nc(C)cc(C)n3n2)o1 | 1.05 | 8.29
5 | O=C(CN1CCN(c2nc(-c3ccc(F)cc3)cs2)CC1)NCc1ccc2c(c1)OCO2 | 42.6 | 55.8
6 | CC/C(=C(\c1ccc(O)cc1)c1ccc(OCCN(C)C)cc1)c1ccccc1 | 22.5 | 35.4
7 | CC(C)(C)c1ccc(-c2nc3[nH]c(=O)cc(NC(=O)c4ccco4)n3n2)cc1 | 74.4 | > 100
8 | Cc1cc2nc(/N=C(\N)NC(=O)C(C)C)nc(C)c2cc1C | 4.67 | 61.2
9 | O=C(NCCN1CCN(c2cccc(Cl)c2)CC1)c1ccc(CSc2nc3ccncc3[nH]2)cc1 | 23.2 | 35.3
10 | C=C1c2c(Cl)ccc(O)c2C(O)=C2C(=O)[C@]3(O)C(O)=C(C(N)=O)C(=O)[C@@H](N(C)C)[C@@H]3[C@@H](O)C12 (stereo partly specified) | 1.06 | 4.88
11 | O=S(=O)(Nc1ccc2[nH]ncc2c1)c1ccccc1Cl | 11.6 | 19.5
12 | Cn1c(=O)c(C(=O)NNC(=O)c2cccc(Cl)c2)c(O)c2ccccc21 | 0.8 | 1.28
13 | Cc1ccc(OCCCCNC2CCCC(C)C2C)c(C)c1 (stereo unspecified) | 21.8 | 24.2
14 | CCC(=O)c1ccc(OCC(=O)OCC(=O)c2cc(C)n(C3CC3)c2C)cc1 | 2.41 | 74.8
15 | CCCc1cnc(NCCNCC(O)COc2ccc(Cl)c(Cl)c2)nc1 (stereo unspecified) | 17.1 | 22.1
16 | CCCCCCCNC1=CC(=O)CC(c2ccccc2)C1 (stereo unspecified) | 41.6 | 53.9
17 | COc1cccc(/C=N/Nc2nc(Nc3ccccc3)nc(-n3nc(C)cc3C)n2)c1O | < 0.2 | < 0.2
18 | CC(=O)c1cccc(NC(=O)C2C3C=CC(C3=C(c3ccccc3)c3ccccc3)C2C(=O)O)c1 (stereo unspecified) | – | > 100
19 | CC(=O)c1cccc(NC(=S)NC2CCCCCCC2)c1 | 23.6 | 26.2
20 | Cc1ccc(C(=O)c2cc(C)sc2NC(=O)CN2CCN(C(=O)c3ccco3)CC2)cc1 | 3.81 | 12
21 | O=C(CSc1cccc[n+]1[O-])c1cccs1 | 12 | 16.5

Row | Compound | IC50 [µM] | IC90 [µM]
22 | COc1ccc2c(c1)CC/C(=C\C=C\c1ccccc1OC)C2=O | 7.79 | 17.8
23 | COC(=O)/C(=C1/Oc2cc(C)oc(=O)c2S1)C(F)(F)F | 6.24 | > 100
24 | COc1ccc(C[C@H]2CN3C(=NC[C@H]3Cc3ccccc3)N2CCNC(=O)CCC2CCCCC2)cc1 | 16.8 | 21.3
25 | O=C1CCCC2=C1C1c3ccccc3C(=O)N1c1ccc(C(=O)c3ccccc3)cc1N2 (stereo unspecified) | 16 | 21.9
26 | c1ccc(-c2nc(N3CCCC3)nc3ccccc23)cc1 | 37.5 | 51.8
27 | O=C(Nc1ccc(N2CCN(C(=O)c3ccco3)CC2)cc1)C(c1ccccc1)c1ccccc1 | 12.1 | 22.6
28 | Oc1cc(Nc2ccccc2)cc2cccnc12 | 13.8 | 26.6
29 | O=c1oc(-c2cccs2)nc2c1cnn2-c1ccccc1 | 64.5 | > 100
30 | O=C(Nc1nc(-c2cc(Cl)sc2Cl)cs1)c1cccs1 | 29.3 | > 100
31 | Cc1ccccc1Nc1nc(N)nc(COC(=O)c2ccc([N+](=O)[O-])o2)n1 | 0.49 | 2.46
32 | C/C(=C\C(=S)Nc1ccccc1)Nc1ccc2ccccc2c1 | 40.6 | 52.9
33 | Cc1ccc2[nH]c3c(c2c1)CN(C(=O)CN1CCN(c2ccccn2)CC1)CC3 | – | > 100
34 | CC(=O)C1=C(C)NC(SCC(=O)c2ccc(F)cc2)=C(C#N)C1c1ccco1 (stereo unspecified) | 46.1 | 51
35 | CSc1nsc(/C=C/Nc2ccc(O)cc2C)c1C#N | 27 | 43
36 | Cc1cc(C)c2cc(C(=O)Nc3ccc(C)c(F)c3)[nH]c2c1 | 0.94 | 1.69
37 | C(=C\c1nccc2c1[nH]c1ccccc12)/c1ccccc1 | 28.5 | 48.2
38 | COC(=O)C(Cc1ccc(OC(=O)c2ccc(C(F)(F)F)cc2)cc1)N1Cc2ccccc2C1=O (stereo unspecified) | – | > 100
39 | CCCOc1ccc(N2CC(C(=O)Nc3ccccn3)CC2=O)cc1 (stereo unspecified) | 16.3 | 59.1
40 | CCn1c(SCC(=O)Nc2ccc3c(c2)oc2ccccc23)nnc1-c1ccc(N)cc1 | – | > 100
41 | COC(=O)c1ccc(-c2ncc(-c3cccc4ccccc34)o2)cc1 | 15.8 | 52.7
42 | O=C(NC1CCCCC1)C(c1ccc2ncccc2c1)N(Cc1ccco1)C(=O)c1ccc2c(c1)OCCO2 (stereo unspecified) | 92.7 | > 100

Row | Compound | IC50 [µM] | IC90 [µM]
43 | Cc1cccc2c1-c1sc(C(=O)Nc3ccccc3N3CCN(C)CC3)cc1CO2 | 17.9 | 25.1
44 | CCCCn1c(=O)c(C(=O)Nc2ncccc2C)c(O)c2ccccc21 | 10.3 | 15.8
45 | CC1CCC(NC(=O)c2cc3c(s2)CCCC3)CC1 (stereo unspecified) | 40.1 | 57.1
46 | C[C@]12C=CC(=O)C=C1CC[C@@H]1C2=CC[C@]2(C)[C@@H](C(=O)CN3CCN(c4cc(N5CCCC5)nc(N5CCCC5)n4)CC3)CC[C@@H]12 | 22.5 | 30.4
47 | CCCCCCCCCCCCCCCC[N+](C)(C)CC | 30.3 | 43
48 | ClCc1nc2ccccc2c2ccccc12 | 6.3 | 17.2
49 | CCCOC(=O)CSc1nc(N2CCOCC2)c2c(c1C#N)CC(C)(C)OC2 | 21.8 | 37.4
50 | CCOC(=O)[C@@H]1[C@H]2COc3cc(OC)ccc3[C@H]2N2C(=O)N(c3ccc(C(F)(F)F)cc3)C(=O)[C@]12C | 5.77 | 6.48
51 | CCc1cc(C(=O)Nc2nc(-c3ccccn3)cs2)sc1C | 1.26 | 15.3
52 | Cc1cc(C)n(-c2ccc(C(=O)Oc3ccc4c(c3)OCO4)cc2)n1 | 4.02 | 13.3
53 | O=C(CNC(=O)c1ccco1)OCc1ccc(C(=O)Oc2ccccc2)cc1 | 4.52 | 16.2
54 | Cc1ccc2nc(/C(C#N)=C/c3cn[nH]c3-c3ccc(F)cc3)[nH]c2c1 | 20.9 | > 100
55 | O=[N+]([O-])c1cnc(Nc2ccc(Cl)cn2)c([N+](=O)[O-])c1 | 45.8 | > 100
56 | Cc1cc2oc3ccc(NCCCn4ccnc4)cc3c(=O)c2cc1C | 18.2 | 27.5
57 | CC1CCCCC1NC(=O)c1ccc2c(c1)[nH]c(=O)n2C1CCCC1 (stereo unspecified) | 5.15 | 8.42
58 | COc1ccc(COc2cc(-c3cccc(OC)c3)nc3ccc(NC(=O)c4ccc(OC)cc4)cc23)cc1 | 5.42 | > 100
59 | Cn1c(SCc2ccccc2)nc(N)c(N=O)c1=O | 3.5 | 20.8
60 | CCCc1cc2c(cc1NC(=O)c1ccccc1Cl)OCO2 | 1.98 | > 100
61 | C=CCc1c(C)nc(SC)nc1Nc1ccc(C(C)=O)cc1 | 23.3 | 32.6
62 | Cn1nc(-c2ccccc2F)c2cc(C(=O)Nc3ccc4c(c3)OCCO4)sc21 | 17.7 | 35.5
63 | CCn1nc(NC(=O)c2ccncc2)c2cc3cc(C)ccc3nc21 | 4.47 | 47.3
